Laboratory results: patent publication US12606543B2, “Indole derivatives as serotonergic agents useful for the treatment of disorders related thereto” (priority 2023, dated 2026)
Where two headings read alike, the source gives them in different places.

Columns and labels:
[1] = target: T1, human 5-hydroxytryptamine receptor 1A (5-HT1A) (Homo sapiens, UniProt P08908); test: Human 5-HT1A functional FLIPR assay (agonist mode); type: cell-based; design: expressed in transfected cells; host or cells: Flp-In CHO; details: for RFU@10 μM: normalized fluorescence reading (Fmax−Fmin) at 10 μM, curve fitting with activation (%)
T1 sequence (P08908 1-422): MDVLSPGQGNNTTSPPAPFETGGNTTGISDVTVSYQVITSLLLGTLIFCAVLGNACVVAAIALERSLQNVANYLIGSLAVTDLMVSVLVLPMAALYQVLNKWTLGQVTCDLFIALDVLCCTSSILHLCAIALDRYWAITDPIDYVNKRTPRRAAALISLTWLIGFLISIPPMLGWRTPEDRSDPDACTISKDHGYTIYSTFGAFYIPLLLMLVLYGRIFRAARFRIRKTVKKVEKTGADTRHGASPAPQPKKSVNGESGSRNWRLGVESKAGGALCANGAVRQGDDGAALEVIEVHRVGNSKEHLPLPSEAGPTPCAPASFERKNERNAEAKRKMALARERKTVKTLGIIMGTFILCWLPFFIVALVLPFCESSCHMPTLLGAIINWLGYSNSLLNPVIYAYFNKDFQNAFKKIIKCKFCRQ
Method: The potential excitatory effects of compounds targeting on 5-hydroxytryptamine receptor 1A (5-HT1A) under agonist mode was assessed.
HTR1A&Gα15-CHO cells were cultured in DMEM/F12 medium containing 10% dialyzed FBS, 1× penicillin-streptomycin and 600 μg/mL Hygromycin B. The cells were passaged about three times a week, maintained between ˜30% to ˜90% confluence.
8. Cells were diluted to 4×10^5/mL with cell culture medium.
9. 30 μL/well cell suspensions were added into a 384-well cell plate (The cell density was 12,000 cells/well).
2. 10 μL of assay buffer (20 mM HEPES, in 1×HBSS, pH 7.4) was added to each well of the cell plate.
3. 2× dye solution was prepared following the manufacture's instruction of the FLIPR® Calcium 6 assay kit: • i. The dye was diluted with assay buffer. • ii. probenecid was added to the final concentration of 5 mM. • iii. Vortexed vigorously for 1-2 minutes, adjust pH to 7.4.
4. 10 μL of 2× dye solution was added to each well of the cell plate.
6. The plate was incubated at 37° C. for 2 hours followed by an additional 15-minute incubation at 25° C.
1. Serotonin was prepared to the concentration of 10 mM with DMSO, 3-folds serial dilutions were performed with DMSO.
2. Prepare the test compound to the concentration of 10 mM with DMSO, preform 3-folds serial dilutions with DMSO.
4. 90 nL/well of serial diluted compounds were transferred from source plate to a 384-well compound plate by using an Echo.
5. 30 μL/well of assay buffer was added to the compound plate.
2. 10 μL of 3× compounds were transferred from the compound plate to the cell plate by FLIPR.
3. The plate was read for 160 sec with 1 sec interval to obtain the data of agonist mode.
1. The normalized fluorescence reading (RFU) was calculated as shown below, wherein Fmax and Fmin stand for maximum and minimum of calcium signal during defined time window:
2. EC50 was calculated by fitting RFU against log of compound concentrations with Hill equation using XLfit.

[2] = target: T2, human 5-HT1A receptor (Homo sapiens, UniProt P08908); test: Human 5-HT1A cAMP assay; type: cell-based; details: for Emax (% of serotonin): cAMP assay, CHO-K1 cells, relative to maximum response of serotonin
T2 construct: expressed in transfected cells; host or cells: CHO-K1
T2 sequence (P08908 1-422): T1 sequence (P08908 1-422)
Method: Compound potency (EC50) and efficacy (Max response) against the human 5-HT1A receptor in stably transfected CHO-K1 cells were determined in a GPCR cell-based CAMP assay.
(§1) Cells were seeded in a total volume of 20 μL into white walled, 384-well microplates and incubated at 37° C. overnight before analysis. Prior to testing, cell plating media was exchanged with 10 μL of Assay buffer (HBSS+10 mM HEPES). Briefly, intermediate dilution of sample stocks were performed to generate 4× sample in assay buffer. 5 μL of 4× samples+5 μL of 4× forskolin were added to cells and incubated at 37° C. for 30 minutes (mins). The final assay vehicle concentration was 1%.
as §1, with “sample stocks was performed to” for “sample stocks were performed to”, “generate 4× samples in assay” for “generate 4× sample in assay”, “4× forskolin was added to” for “4× forskolin were added to”, “for 30 mins. The final” for “for 30 minutes (mins). The final”

[3] = cAMP assay with forskolin, stably transfected CHO-K1 cells, 30 min, read-out: EC50

| SMILES | RFU@10 μM [1] | EC50 [2] [nM] | Emax (% of serotonin) [2] | EC50 [1] [nM] | EC50 [2, 3] [nM] |
| --- | --- | --- | --- | --- | --- |
| [2H]C([2H])(c1c[nH]c2ccc(OCCCCCN3C(=O)C4CCCCC4C3=O)cc12)[C@H]1CCCN1C([2H])([2H])[2H] (mixture of isomers) [Rac (R) I-248] | 601 RFU | – | – | – | – |
| CSc1ccc2[nH]cc(C[C@H]3CCCN3C)c2c1 [(R) I-1, (R)-3-((1-Methylpyrrolidin-2-yl)methyl)-5-(methylthio)-1H-indole] | 3,355 RFU | 11.1 | 99.41 % of serotonin | 581 | – |
| COCCN1CCC[C@@H]1Cc1c[nH]c2ccc(OC)cc12 [(R) I-98, (R)-5-Methoxy-3-((1-(2-methoxyethyl)pyrrolidin-2-yl)methyl)-1H-indole] | 1,666 RFU | – | 96.42 % of serotonin | 3170 | 40.3 |
| [2H]C([2H])(c1c[nH]c2ccc(OCCCCN3C(=O)c4ccccc4C3=O)cc12)[C@H]1CCCN1C([2H])([2H])[2H] [(R) I-244, (R)-2-(4-((3-((1-(Methyl-d3)pyrrolidin-2-yl)methyl-d2)-1H-indol-5-yl)oxy)butyl)isoindoline-1,3-dione] | 616 RFU | – | 99.01 % of serotonin | – | 6.3 |
| [2H]C([2H])(c1c[nH]c2ccc(OCCCCCN3C(=O)c4ccccc4C3=O)cc12)[C@H]1CCCN1C([2H])([2H])[2H] [(R) I-245, (R)-2-(5-((3-((1-(Methyl-d3)pyrrolidin-2-yl)methyl-d2)-1H-indol-5-yl)oxy)pentyl)isoindoline-1,3-dione] | 899 RFU | – | 99.14 % of serotonin | – | 19.5 |
| [2H]C([2H])(c1c[nH]c2ccc(OCCCCCN3C(=O)[C@H]4CCCC[C@H]4C3=O)cc12)[C@H]1CCCN1C([2H])([2H])[2H] [Cis (R) I-248, 2-(5-((3-(((R)-1-(Methyl-d3)pyrrolidin-2-yl)methyl-d2)-1H-indol-5-yl)oxy)pentyl)hexahydro-1H-isoindole-1,3(2H)-dione] | – | – | 96.76 % of serotonin | – | 52.7 |
| CN(C)CCc1c[nH]c2ccccc12 [DMT] | 204 RFU | – | 87.1 % of serotonin | – | – |
